From patent publication US6235707A, “Anticoagulant peptidyl-arginine aldehyde derivatives” (Gyogyszerkutato Intezet Kft., priority 1996, dated 2001)

What was measured:
citrate plasma [1] = test: activated partial thromboplastin time (APTT) plasma clotting test; format: biochemical; conditions: Table 3; twofold prolongation compared to control; read-out: A: anticoagulant IC50, APTT
Procedure: (§1) Anticoagulant activity (i.e. inhibition of the proteolytic reactions in the process) is measured by anticoagulant tests, e.g. in the thrombin time (TT), activated partial thromboplastin time (APTT) and prothrombin time (PT) tests [E. J. W. Bovie et al., Mayo Clinic Laboratory Manual of Haemostasis; W. B. Saunders Co., Philadelphia (1971)]. Plasma, inhibited in spontaneous coagulation, e.g. citrate-plasma, is made to coagulate and the required coagulation time is measured. Upon the action of anticoagulants the coagulation time is prolonged proportionally to the inhibition of the reaction(s) in the process. The anticoagulant effect can be characterised by the substance concentration required to prolong the coagulation time twofold compared to the control (IC50). The effect of anticoagulants on individual coagulant proteases is measured by the amidolytic method [R. Lottenberg et al., Methods in Enzymol. 80, 341 (1981); G. Cleason, Blood Coagulation and Fibrinolysis 5, 411 (1994)]. The isolated active factor (e.g. thrombin, fXa) and its chromogen or fluorogen peptide-amide substrate are reacted in the presence or absence of the inhibitor, resp. The enzyme inhibiting action is characterised by the inhibitory constant (IC50) measured during amidolysis.
(§2) In the TT test coagulation is initiated by the thrombin added to the citrate plasma. In the system 22 pmol/ml of thrombin is functioning and its inhibition can be measured on the fibrinogen (one of the natural substrates of thrombin) in the presence of plasma components. In the APTT and PT tests the full coagulation process takes place. Depending on the activator fX is activated either by the extrinsic or the intrinsic pathway. The generated fXa activates prothrombin to thrombin which, in turn, triggers plasma coagulation. The coagulation time is prolonged if the enzymes or one of them is inhibited by the inhibitor. In the APTT and PT tests at most 40 pmol/ml Xa can be generated (this is the full amount of factor X present in both systems) while 150 pmol/ml (APTT) and 350 pmol/ml (PT) of thrombin are generated [B. Kaiser et al., Thromb. Res. 65, 157 (1992)].
(§3) The in vitro anticoagulant effects of the compounds of general formula (I) was measured by the prothrombin time (PT), activated partial thromboplastin time (APTT) and thrombin time (TT) tests [D. Bagdy et al., Thromb. Haemost. 67, 325 (1992)]. The fxa-inhibiting effect of the compounds was also determined using the Bz-Ile-Glu-Gly-Arg-pNA chromogen substrate (see method M6).

thrombin = thrombin (Homo sapiens, UniProt P00734); test: thrombin time (TT) plasma clotting test; format: biochemical; conditions: Table 3; twofold prolongation compared to control; read-out: A: anticoagulant IC50, TT
Procedure: as §1, §2, §3

clot-bound fXa = target: T1, clot-bound fXa (Homo sapiens, UniProt P00742); test: inhibition of plasma clot-bound factor Xa (Methods M1, M2); format: biochemical; conditions: text b187, well below
T1 construct: from tissue; host or cells: clot of recalcified human platelet-rich plasma
T1 sequence (P00742 235-488 limits assumed): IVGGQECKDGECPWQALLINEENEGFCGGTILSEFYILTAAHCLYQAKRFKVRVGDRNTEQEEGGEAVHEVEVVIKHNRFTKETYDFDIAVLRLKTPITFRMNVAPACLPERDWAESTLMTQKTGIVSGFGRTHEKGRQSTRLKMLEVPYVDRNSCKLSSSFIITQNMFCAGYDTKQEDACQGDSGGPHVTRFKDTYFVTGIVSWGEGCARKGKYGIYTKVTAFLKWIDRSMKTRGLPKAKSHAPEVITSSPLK
T1 sequence (P00742 41-179 partner limits assumed): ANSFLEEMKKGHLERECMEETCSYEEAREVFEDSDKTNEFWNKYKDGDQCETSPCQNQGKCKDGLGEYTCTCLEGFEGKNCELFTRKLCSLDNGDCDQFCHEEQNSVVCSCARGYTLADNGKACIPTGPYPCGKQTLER
Procedure: Plasma-clot was obtained by recalcificating platelet-rich human plasma, and fibrin gel by clotting human fibrinogen with human thrombin. For the activity measures of fXa and thrombin Z-D-Arg-Gly-Arg-pNA or Tos-Gly-Pro-Arg-pNA substrates were used in agreement with Methods M1-M3.
Preparation of Clots from Human Plasma
a) Platelet-rich plasma is prepared by centrifuging a 9:1 mixture of human blood and 3.8% sodium citrate solution for 5 min. at 240×g.
b) 200 μl platelet-rich plasma and 80 μl 40 mM CaCl2 solution are allowed to stand at room temperature for 1 hour. The thus-formed clot is washed with 6×2 ml of 0.9% NaCl solution with gentle stirring to remove the residual enzymes (thrombin and factor Xa). The washing medium is assayed for thrombin-like activity as follows:
c) To 400 μl of washing medium 100 μl of 1 mM Tos-Gly-Pro-Arg-pNA substrate solution is added, the mixture is incubated for 30 min at 37° C., then the reaction is stopped with 100 μl of 50% acetic acid. From this mixture 150 μl aliquots are applied onto a 96-well microtitre plate and the extinction coefficients are measured at 405 nm (ELISA READER SLT Laborinstrument GmbH, Austria). […]
c) From each reaction vessel 150 μl is applied onto a 96 well microtitre plate and extinction coefficients are measured at 405 nm (ELISA READER SLT Laborinstrument GmbH, Austria). […]

citrate plasma [2] = test: prothrombin time (PT) plasma clotting test; format: biochemical
Procedure: as §1, §2, §3

isolated human fXa = target: T2, isolated human fXa (Homo sapiens, UniProt P00742); test: fXa inhibition in solution, amidolytic method on Bz-Ile-Glu-Gly-Arg-pNA chromogen substrate (Method M6); format: biochemical; conditions: Table 3; isolated human fXa, Bz-Ile-Glu-Gly-Arg-pNA; read-out: B: fXa inhibiting IC50
T2 construct: The isolated active factor (e.g. thrombin, fXa) and its chromogen or fluorogen peptide-amide substrate are reacted; purchased SIGMA
T2 sequence (P00742 235-488 limits assumed): as the sequence (P00742 235-488 limits assumed) above
T2 sequence (P00742 41-179 partner limits assumed): as the sequence (P00742 41-179 partner limits assumed) above
Procedure: as §1, §3
Determination of Factor Xa Inhibition in Solution on a 96-well Microtitre Plate
a) By means of phosphate buffer (0.1M sodium phosphate and 0.05M sodium chloride, pH=7.4) 1.3 E/ml solution is prepared from human factor Xa (SIGMA), and 0.1-1.0-10 and 100 μg/ml solutions from the peptide inhibitors. The Bz-Ile-Glu-Gly-Arg-pNA substrate is used in distilled water solution ([…]).
b) From the control and the peptide inhibitor solutions (3 parallel samples of each concentration) 30-30 μl aliquots are placed into the wells. 30 μl of factor Xa, 90 μl of buffer and 150 μl of substrate are added to the peptide solution and the extinction is determined after 10 min. at 405 nm. Thereafter the steps are the same as in M2/c.

[3] = tested on: thrombin-induced blood platelet aggregation; test: ex vivo inhibition of thrombin-induced blood platelet aggregation (PAI) in rabbits after p.o. dosing; set-up: species or system rabbit; conditions: p.o. 5 mg/kg
Procedure: (§4) The anticoagulant and platelet aggregation inhibiting effect of the compounds of general formula (I) was studied in New Zealand white rabbits ex vivo according to D. Bagdy et al. [Thromb. Haemost. 67, 357 (1992)]. The compounds were dissolved in buffered isotonic saline solution and administered i.v. (0,04-5.0 mg/kg) or by infusion (0.25-5.0 mg/kg/h) or subcutaneously (0.5-6.0 mg/kg) or p.o. (2.5-20 mg/kg). The effect of the compounds was detectable already within 30 minutes following p.o. administration, peak values were attained after 60-180 minutes and the therapeutic level was maintained dose-dependently for 3→6 hours.
(§5) The in vivo effect of ethoxycarbonyl-3-cyclobutyl-D-alanyl-L-prolyl-L-arginine aldehyde (1) is presented in detail in Tables 6 and 7. The corresponding values of C1 are listed as controls. The compound was administered p.o. in doses of 5 mg/kg. The blood samples drawn from the caudal vein in every 30-60 minutes were analysed. The whole blood clotting time (WBCT) and the inhibition of thrombin-induced blood platelet aggregation (PAI) were determined. The activated partial thromboplastin time (APTT) and the thrombin time (TT) in the citrate plasma obtained from the blood sample were also measured. The APTT and TT values are compiled in Table 6 and the WBCT and PAI values in Table 7.

urokinase (UK) = urokinase (UK) (Homo sapiens, UniProt P00749); test: fibrin-plate method, plasmin formation induced by urokinase; format: biochemical; conditions: related to the activity of C1 (1/IC50 = 1)
Text: (§6) The inhibitory effect of the new compounds of the invention on plasmin (PL) as well as on plasmin formation induced by tissue plasminogen activator (tPA) and urokinase (UK) was examined by the fibrin-plate method [D. Bagdy et al.: Thromb. Haemost. 67, 325 (1992)]. Compounds C1 and C5 served as controls. […] V. Jackson et al.: J. Cardiovasc. Pharmacol. 21, 587 (1993))]. In Table 4 the results obtained with the new compounds 1 and 2 as well as those with controls C1 and C5 are presented as an example.

[4] = C. V. Jackson et al. 1993; cited from earlier work
plasmin (PL) = plasmin (PL) (Homo sapiens, UniProt P00747); test: fibrin-plate method, plasmin; format: biochemical; conditions: related to the activity of C1 (1/IC50 = 1)
Chain of plasmin (PL) (P00747 581-810 limits assumed, species assumed): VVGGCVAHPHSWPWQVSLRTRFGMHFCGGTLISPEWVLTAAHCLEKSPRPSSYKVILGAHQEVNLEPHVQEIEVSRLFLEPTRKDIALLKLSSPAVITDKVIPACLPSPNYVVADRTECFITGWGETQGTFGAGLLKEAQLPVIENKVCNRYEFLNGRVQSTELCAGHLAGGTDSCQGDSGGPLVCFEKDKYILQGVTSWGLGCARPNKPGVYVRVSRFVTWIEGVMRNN
Chain of plasmin (PL) (P00747 97-580 partner limits assumed, species assumed): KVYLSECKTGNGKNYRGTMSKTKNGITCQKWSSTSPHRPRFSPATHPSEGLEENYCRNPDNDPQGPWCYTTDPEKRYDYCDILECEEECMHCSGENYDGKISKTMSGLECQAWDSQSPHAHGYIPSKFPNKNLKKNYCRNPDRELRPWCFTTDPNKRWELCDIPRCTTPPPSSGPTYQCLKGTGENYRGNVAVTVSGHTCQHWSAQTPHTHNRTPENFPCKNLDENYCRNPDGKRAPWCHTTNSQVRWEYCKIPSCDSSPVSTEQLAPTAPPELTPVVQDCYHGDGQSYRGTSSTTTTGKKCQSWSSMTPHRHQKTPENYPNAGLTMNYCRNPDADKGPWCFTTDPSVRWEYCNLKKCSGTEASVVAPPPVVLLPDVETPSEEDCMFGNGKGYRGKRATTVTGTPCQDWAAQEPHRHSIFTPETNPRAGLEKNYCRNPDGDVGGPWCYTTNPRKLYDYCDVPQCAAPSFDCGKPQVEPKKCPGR
Text: as §6

[5] = tested on: New Zealand white rabbits; test: ex vivo TT in citrate plasma of rabbits after p.o. dosing; set-up: species or system rabbit; conditions: p.o. 5 mg/kg, 90 min
Procedure: as §4, §5

[6] = target: tissue plasminogen activator (tPA) (Homo sapiens, UniProt P00750); test: fibrin-plate method, plasmin formation induced by tPA; format: biochemical; conditions: related to the activity of C1 (1/IC50 = 1)
Chain of tissue plasminogen activator (tPA) (P00750 36-562, species assumed): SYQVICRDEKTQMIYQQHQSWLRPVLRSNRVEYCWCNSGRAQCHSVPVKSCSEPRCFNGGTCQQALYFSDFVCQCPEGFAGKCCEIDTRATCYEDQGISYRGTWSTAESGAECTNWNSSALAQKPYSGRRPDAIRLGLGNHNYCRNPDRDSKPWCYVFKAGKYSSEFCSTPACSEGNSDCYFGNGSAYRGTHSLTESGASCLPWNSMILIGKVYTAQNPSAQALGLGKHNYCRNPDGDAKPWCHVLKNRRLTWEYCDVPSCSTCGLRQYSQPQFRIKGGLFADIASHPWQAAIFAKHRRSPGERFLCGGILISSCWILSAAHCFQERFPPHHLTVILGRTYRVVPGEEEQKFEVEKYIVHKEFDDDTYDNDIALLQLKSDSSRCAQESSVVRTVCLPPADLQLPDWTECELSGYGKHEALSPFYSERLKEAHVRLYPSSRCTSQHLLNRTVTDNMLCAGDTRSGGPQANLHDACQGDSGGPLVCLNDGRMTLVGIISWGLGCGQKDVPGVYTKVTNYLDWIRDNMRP
Text: as §6

Row | Structure (SMILES) | IC50 (citrate plasma [1]) [nM] | IC50 (thrombin) [nM] | IC50 (clot-bound fXa) [nM] | IC50 (citrate plasma [2]; Table 3, twofold prolongation compared to control, read-out: A: anticoagulant IC50, PT) [nM] | IC50 (isolated human fXa) [nM] | PAI (%), percentual inhibition of platelet aggregation ([3]; 0 min) [%] | PAI (%), percentual inhibition of platelet aggregation ([3]; 30 min) [%] | PAI (%), percentual inhibition of platelet aggregation ([3]; 45 min) [%] | PAI (%), percentual inhibition of platelet aggregation ([3]; 60 min) [%] | PAI (%), percentual inhibition of platelet aggregation ([3]; 90 min) [%] | PAI (%), percentual inhibition of platelet aggregation ([3]; 120 min) [%] | PAI (%), percentual inhibition of platelet aggregation ([3]; 180 min) [%] | PAI (%), percentual inhibition of platelet aggregation ([3]; 240 min) [%] | B: relative efficiency, UK (urokinase (UK)) | antifibrinolytic effect in vivo [4] | B: relative efficiency, PL (plasmin (PL)) | TT relative clotting time [5] | IC50 (citrate plasma [2]; Table 2, concentration prolonging clotting time twofold, read-out: A: anticoagulation IC50, PT) [nM] | B: relative efficiency, tPA [6]
1 | CC(C)OC(=O)N[C@H](CC1CCC1)C(=O)N1CCC[C@H]1C(=O)N[C@H](C=O)CCCNC(=N)N [Example 3, Isopropoxycarbonyl-3-cyclobutyl-D-alanyl-L-prolyl-L-arginine aldehyde] | 600 | 190 | < 1000 | 1700 | 36 | – | – | – | – | – | – | – | – | – | – | – | – | – | –
2 | CN[C@H](Cc1ccccc1)C(=O)N1CCC[C@H]1C(=O)N[C@H](C=O)CCCNC(=N)N [Example C1, D-MePhe-Pro-Arg-H, reference compound] | – | – | – | – | – | 1.0 | 52.8 ± 14.7 | 58.4 ± 15.6 | 54.2 ± 11.6 | 83.2 ± 8.9 | 75.2 ± 12.3 | 47.5 ± 20.9 | 32.2 ± 16.0 | 1.0 | insignificant | 1.0 | 10.50 ± 4.59 | 2930 | 1.0
